pIC50: −log10 of the molar value.

The term pIC50 denotes the IC50 on a negative log10 scale, so that one unit is a factor of ten.

This test deals with T1, human estrogen receptor β (Homo sapiens, UniProt Q92731).
T1 construct: purchased Panvera
T1 sequence (Q92731 whole entry): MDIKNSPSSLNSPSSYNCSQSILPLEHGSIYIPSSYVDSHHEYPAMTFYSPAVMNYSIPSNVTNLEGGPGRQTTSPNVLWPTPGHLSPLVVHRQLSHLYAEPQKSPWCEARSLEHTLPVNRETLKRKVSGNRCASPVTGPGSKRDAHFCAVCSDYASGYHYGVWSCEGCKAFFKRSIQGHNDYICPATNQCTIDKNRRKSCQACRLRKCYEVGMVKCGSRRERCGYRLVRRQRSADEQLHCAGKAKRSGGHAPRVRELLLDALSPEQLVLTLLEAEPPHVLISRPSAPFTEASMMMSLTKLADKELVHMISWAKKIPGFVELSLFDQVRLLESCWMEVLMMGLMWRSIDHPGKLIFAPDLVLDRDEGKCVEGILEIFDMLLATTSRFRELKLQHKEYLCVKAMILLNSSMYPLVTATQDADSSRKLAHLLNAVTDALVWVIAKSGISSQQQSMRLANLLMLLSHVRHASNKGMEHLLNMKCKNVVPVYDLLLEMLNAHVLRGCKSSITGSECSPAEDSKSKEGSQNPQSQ
The experiment in a line: Estrogen Receptor β Fluorescence Polarization Assay. The following applies: displacement of Fluormone ES2; read-out: ERβ Binding IC50. The text has this: This assay monitors binding of a fluorescent analog of estrogen (Fluormone ES2, Panvera) to the estrogen receptor. Plates were read in a fluorometer that can be set to polarization mode. A decrease in […] relative to vehicle control is an indication of binding of a compound to the receptor. It is crucial to avoid introduction of air bubbles into the reaction in each well of the 96 well plate throughout this procedure. (Bubbles on the surface of the reaction disrupt light flow, affecting the polarization reading.) However, it is also crucial to effectively mix the reaction components upon addition to the well. On ice, a 2× standard mixture of Assay Buffer (Panvera), 10 nM DTT and 40 nM ES2 was prepared. On ice, a 2× reaction mixture of Assay Buffer (Panvera), and 20 nM human estrogen receptor β (hER-β, Panvera) and 40 nM ES2 was also prepared. Dilutions-of test compound were prepared in 30% (v/v) dimethyl sulfoxide/50 mM HEPES, pH 7.5. At this point, the dilutions were 40× the final required concentration. The standard mixture at 50 μL was then added to each well. The reaction mixture at 48 μL was added to all wells. The compound dilution at 2.5 μL was added to the appropriate wells. The reaction mixtures were mixed using a manual pipette, a roll of aluminum foil adhesive cover was placed on the plate and the plate incubated at room temperature for 1 hour. Each well on the plate was then read in an LjL Analyst with an excitation wavelength of […] and an emission wavelength of 538.
(In general: Fluorescence polarisation rises when a labelled molecule tumbles more slowly, as on binding a larger partner.)
Turning to `C[C@]12CCC3c4ccc5[nH]ccc5c4CCC3C1CCC2=O` (some centres unmarked) [Compound 4], the pIC50 was 6.21.
Next, `C[C@]12CCC3c4ccc5[nH]ccc5c4CCC3C1CC[C@@H]2O` (some centres unmarked) [Compound 6]: 7.04.
The value for `C[C@]12CCC3c4cc5cc[nH]c5cc4CCC3C1CC[C@@H]2O` (some centres unmarked) [Compound 8] was 6.82; that for `C[C@]12CCC3c4cc5cc[nH]c5cc4CCC3C1CCC2=O` (some centres unmarked) [Compound 3] was below 5.00.
Next, `C[C@]12CCC3c4cc5cc[nH]c5cc4CCC3C1CC[C@@H]2OC(=O)CCC(=O)O` (some centres unmarked) [Compound 13]: 6.21.

These data come from patent publication US7074779B2, “Estrieno[3,2-b]/[3,4-c]pyrrole derivatives useful as modulators of the estrogen receptors” (Ortho-McNeil Pharmaceutical, Inc., priority 2003, dated 2006).
